The source of these data is article PMC9145702, “Design, Synthesis and Evaluation of Fused Bicyclo[2.2.2]octene as a Potential Core Scaffold for the Non-Covalent Inhibitors of SARS-CoV-2 3CL^pro Main Protease” (Pharmaceuticals, 2022).

Where two headings read alike, the source gives them in different places.

For series [1], the target named is SARS-CoV-2 3CL^pro main protease (Severe acute respiratory syndrome coronavirus 2, UniProt P0DTD1). The experiment in a line: FRET-based assay of SARS-CoV-2 3CL^pro main protease inhibition activity. In kind it is biochemical. Conditions: for screening result after accounting for effect on measured fluorescence: 64 μM, difference between 3CL(+) and 3CL(-) fluorescence; for first screening result (hit candidate): first FRET screening at 64 μM of each compound, before accounting for compound effect on fluorescence.

The test system of a further series is 3CL^pro. Set-up: method as in PMID 33817567. Conditions: compared with 11a; read-out: inhibition activity; cited from earlier work.

Usually melting point stands for the temperature, or range, at which the solid turns liquid.

As for `O=C(NC12C=CC(c3ccccc3)(C3C(=O)N(NC(=O)c4ccccn4)C(=O)C31)C1C(=O)N(NC(=O)c3ccccn3)C(=O)C12)c1ccccc1` (stereo not drawn) [11a, N-[8-Phenyl-2,3,3a,4a,5,6,7,7a,8,8a-decahydro-1,3,5,7-tetraoxo-2,6-bis(2-pyridylcarboamino)-4,8-ethenobenzo[1,2-c:4,5-c′]dipyrrol-4(1H)-yl]benzamide], the melting point was 263 to 265 °C. Also, in series [1], the “screening result after accounting for effect on measured fluorescence” value was “remained as hit candidates” and the “first screening result (hit candidate)” value is given as “candidate hit compounds”. In series [1] (FRET assay, isolated SARS-CoV-2 3CL^pro, compound concentrations 200, 100, 50 and 25 μM), the IC50 is 102 µM.
The molecule `O=C(NN1C(=O)C2C(C1=O)C1(c3ccccc3)C=CC2(NC(=O)c2ccccc2)C2C(=O)N(NC(=O)c3cccnc3)C(=O)C21)c1cccnc1` (stereo not drawn) [11b, N-[8-Phenyl-2,3,3a,4a,5,6,7,7a,8,8a-decahydro-1,3,5,7-tetraoxo-2,6-bis(3-pyridylcarboamino)-4,8-ethenobenzo[1,2-c:4,5-c′]dipyrrol-4(1H)-yl]benzamide] gave a melting point of 278 to 282 °C.
The same measure, in the same setting: for `O=C(NN1C(=O)C2C(C1=O)C1(c3ccccc3)C=CC2(NC(=O)c2ccccc2)C2C(=O)N(NC(=O)c3ccncc3)C(=O)C21)c1ccncc1` (stereo not drawn) [11c, N-[8-Phenyl-2,3,3a,4a,5,6,7,7a,8,8a-decahydro-1,3,5,7-tetraoxo-2,6-bis(4-pyridylcarboamino)-4,8-ethenobenzo[1,2-c:4,5-c′]dipyrrol-4(1H)-yl]benzamide] the value was 289 to 293 °C.
Take `CC1=CC2(c3ccccc3)C3C(=O)N(NC(=O)c4ccccn4)C(=O)C3C1(NC(=O)c1ccccc1)C1C(=O)N(NC(=O)c3ccccn3)C(=O)C12` (stereo not drawn) [11d, N-[8-Phenyl-2,3,3a,4a,5,6,7,7a,8,8a-decahydro-10-methyl-1,3,5,7-tetraoxo-2,6-bis(2-pyridylcarboamino)-4,8-ethenobenzo[1,2-c:4,5-c′]dipyrrol-4(1H)-yl]benzamide]: the melting point lay in the range of 271 to 274 °C.
`CC1=CC2(c3ccccc3)C3C(=O)N(NC(=O)c4cccnc4)C(=O)C3C1(NC(=O)c1ccccc1)C1C(=O)N(NC(=O)c3cccnc3)C(=O)C12` (stereo not drawn) [11e, N-[8-Phenyl-2,3,3a,4a,5,6,7,7a,8,8a-decahydro-10-methyl-1,3,5,7-tetraoxo-2,6-bis(3-pyridylcarboamino)-4,8-ethenobenzo[1,2-c:4,5-c′]dipyrrol-4(1H)-yl]benzamide]: the melting point was 345 to 347 °C (dec.). In series [1], the IC50 was ~200 µM, the “screening result after accounting for effect on measured fluorescence” value is given as “remained as hit candidates” and the “first screening result (hit candidate)” value is on record as “candidate hit compounds”.
Consider `O=C(NC12C=CC(c3cccs3)(C3C(=O)N(NC(=O)c4ccccn4)C(=O)C31)C1C(=O)N(NC(=O)c3ccccn3)C(=O)C12)c1ccccc1` (stereo not drawn) [11f, N-[2,3,3a,4a,5,6,7,7a,8,8a-Decahydro-1,3,5,7-tetraoxo-2,6-bis(2-pyridylcarboamino)-8-(2-thienyl)-4,8-ethenobenzo[1,2-c:4,5-c′]dipyrrol-4(1H)-yl]benzamide], for which the melting point is 288 to 291 °C (dec.). Also, the “first screening result (hit candidate)” value in series [1] is “candidate hit compounds”.
Take `O=C(NN1C(=O)C2C(C1=O)C1(c3cccs3)C=CC2(NC(=O)c2ccccc2)C2C(=O)N(NC(=O)c3cccnc3)C(=O)C21)c1cccnc1` (stereo not drawn) [11g, N-[2,3,3a,4a,5,6,7,7a,8,8a-Decahydro-1,3,5,7-tetraoxo-2,6-bis(3-pyridylcarboamino)-8-(2-thienyl)-4,8-ethenobenzo[1,2-c:4,5-c′]dipyrrol-4(1H)-yl]benzamide]: the melting point is 259 to 262 °C (dec.).
Molecule `O=C(NN1C(=O)C2C(C1=O)C1(c3cccs3)C=CC2(NC(=O)c2ccccc2)C2C(=O)N(NC(=O)c3ccncc3)C(=O)C21)c1ccncc1` (stereo not drawn) [11h, N-[2,3,3a,4a,5,6,7,7a,8,8a-Decahydro-1,3,5,7-tetraoxo-2,6-bis(4-pyridylcarboamino)-8-(2-thienyl)-4,8-ethenobenzo[1,2-c:4,5-c′]dipyrrol-4(1H)-yl]benzamide] yielded a melting point of 310 to 312 °C.
`O=C(NC12C=CC(c3ccco3)(C3C(=O)N(NC(=O)c4ccccn4)C(=O)C31)C1C(=O)N(NC(=O)c3ccccn3)C(=O)C12)c1ccccc1` (stereo not drawn) [11i, N-[8-(2-Furyl)-2,3,3a,4a,5,6,7,7a,8,8a-decahydro-1,3,5,7-tetraoxo-2,6-bis(2-pyridylcarboamino)-4,8-ethenobenzo[1,2-c:4,5-c′]dipyrrol-4(1H)-yl]benzamide] gave a melting point of 332 to 334 °C. In addition, the “first screening result (hit candidate)” value in series [1] is listed as “candidate hit compounds”.
The molecule `O=C(NN1C(=O)C2C(C1=O)C1(c3ccco3)C=CC2(NC(=O)c2ccccc2)C2C(=O)N(NC(=O)c3cccnc3)C(=O)C21)c1cccnc1` (stereo not drawn) [11j, N-[8-(2-Furyl)-2,3,3a,4a,5,6,7,7a,8,8a-decahydro-1,3,5,7-tetraoxo-2,6-bis(3-pyridylcarboamino)-4,8-ethenobenzo[1,2-c:4,5-c′]dipyrrol-4(1H)-yl]benzamide] gave a melting point of 272 to 276 °C.
Same read-out and setting: for `O=C(NN1C(=O)C2C(C1=O)C1(c3ccco3)C=CC2(NC(=O)c2ccccc2)C2C(=O)N(NC(=O)c3ccncc3)C(=O)C21)c1ccncc1` (stereo not drawn) [11k, N-[8-(2-Furyl)-2,3,3a,4a,5,6,7,7a,8,8a-decahydro-1,3,5,7-tetraoxo-2,6-bis(4-pyridylcarboamino)-4,8-ethenobenzo[1,2-c:4,5-c′]dipyrrol-4(1H)-yl]benzamide] the value was 309 to 311 °C; for `COc1ccc(C2=CC3(NC(=O)c4ccccc4)C4C(=O)N(NC(=O)c5ccccn5)C(=O)C4C2(C)C2C(=O)N(NC(=O)c4ccccn4)C(=O)C23)cc1` (stereo not drawn) [11l, N-[2,3,3a,4a,5,6,7,7a,8,8a-Decahydro-8-methyl-9-(4-methoxyphenyl)-1,3,5,7-tetraoxo-2,6-bis(2-pyridylcarboamino)-4,8-ethenobenzo[1,2-c:4,5-c′]dipyrrol-4(1H)-yl]benzamide], 298 to 303 °C (dec.); for `COc1ccc(C2=CC3(NC(=O)c4ccccc4)C4C(=O)N(NC(=O)c5cccnc5)C(=O)C4C2(C)C2C(=O)N(NC(=O)c4cccnc4)C(=O)C23)cc1` (stereo not drawn) [11m, N-[2,3,3a,4a,5,6,7,7a,8,8a-Decahydro-8-methyl-9-(4-methoxyphenyl)-1,3,5,7-tetraoxo-2,6-bis(3-pyridylcarboamino)-4,8-ethenobenzo[1,2-c:4,5-c′]dipyrrol-4(1H)-yl]benzamide], 365 to 369 °C (dec.).
Take `COc1ccc(C2=CC3(NC(=O)c4ccccc4)C4C(=O)N(NC(=O)c5ccncc5)C(=O)C4C2(C)C2C(=O)N(NC(=O)c4ccncc4)C(=O)C23)cc1` (stereo not drawn) [11n, N-[2,3,3a,4a,5,6,7,7a,8,8a-Decahydro-8-methyl-9-(4-methoxyphenyl)-1,3,5,7-tetraoxo-2,6-bis(4-pyridylcarboamino)-4,8-ethenobenzo[1,2-c:4,5-c′]dipyrrol-4(1H)-yl]benzamide]: the melting point was 387 to 390 °C (dec.).
`C/C(=N\NC(=O)c1cccnc1)C1=CC2(NC(=O)c3ccccc3)C3C(=O)N(NC(=O)c4cccnc4)C(=O)C3C1(C)C1C(=O)N(NC(=O)c3cccnc3)C(=O)C12` (stereo not drawn) [11o, N-[2,3,3a,4a,5,6,7,7a,8,8a-Decahydro-8-methyl-1,3,5,7-tetraoxo-2,6-bis(3-pyridyl-carboamino)-9-(1-(N-[3-pyridylcarbo]hydrazonyl)eth-1-yl)-4,8-ethenobenzo[1,2-c:4,5-c′]dipyrrol-4(1H)-yl]benzamide] returned a melting point of 284 to 286 °C.
For `Cc1c(O)cccc1C(=O)N[C@@H](CSc1ccccc1)[C@H](O)CN1C[C@H]2CCCC[C@H]2C[C@H]1C(=O)NC(C)(C)C` [nelfinavir], the IC50 in the series with 3CL^pro is ~40 µM.
